Laboratory results taken from patent US9414597B2, “Pesticidal mixtures including spiroheterocyclic pyrrolidine diones” (Syngenta Participations AG, priority 2011, dated 2016).
Several values for one entry are separate records, joined by “and”; a condition that tells them apart may be missing. Equal entries are not always repeated.

Assays:
[1] = test system: Myzus persicae (Green Peach Aphid); experiment: Myzus persicae feeding/residual contact activity, preventive (sunflower leaf discs); format: in vivo
From the text: (§1) The action to be expected E for a given active ingredient combination obeys the so-called COLBY formula and can be calculated as follows (COLBY, S. R. “Calculating synergistic and antagonistic responses of herbicide combination”. Weeds, Vol. 15, pages 20-22; 1967): • ppm=milligrams of active ingredient(=a.i.) per liter of spray mixture • X=% action by active ingredient A) using p ppm of active ingredient • Y=% action by active ingredient B) using q ppm of active ingredient.
(§2) According to COLBY, the expected (additive) action of active ingredients A)+B) using p+q ppm of active ingredient is
(§3) If the action actually observed (O) is greater than the expected action (E), then the action of the combination is super-additive, i.e. there is a synergistic effect. In mathematical terms the synergism factor SF corresponds to O/E. In the agricultural practice an SF of ≧1.2 indicates significant improvement over the purely complementary addition of activities (expected activity), while an SF of ≦0.9 in the practical application routine signals a loss of activity compared to the expected activity.
Myzus persicae (Green Peach Aphid):
feeding/residual contact activity, preventive
Sunflower leaf discs are placed on agar in a 24-well microtiter plate and sprayed with the DMSO test solutions. After drying, the leaf discs are infested with an aphid population of mixed ages. […] (1 PPM=1 mg l^−1)

[2] = test system: Tetranychus urticae (Two-Spotted Spider Mite); experiment: Tetranychus urticae feeding/contact activity, preventive (bean leaf discs); format: in vivo
From the text: as §1, §2, §3
Tetranychus urticae (Two-Spotted Spider Mite):
feeding/contact activity, preventive
Bean leaf discs on agar in 24-well microtiter plates are sprayed with the DMSO test solutions. After drying, the leaf discs are infested with mite populations of mixed ages. […] (1 PPM=1 mg l^−1)

[3] = single active, 3.125 PPM AI, after 5 days
[4] = single active, 6.25 PPM AI, after 5 days
[5] = single active, 12.5 PPM AI, after 5 days
[6] = single active, 100 PPM AI, after 5 days
[7] = single active, 200 PPM AI, after 5 days
[8] = single active, 400 PPM AI, after 5 days
[9] = single active, 800 PPM AI, after 5 days
[10] = single active, 50 PPM AI, after 5 days

CC1(C)[C@H](C(=O)O[C@H](C#N)c2cccc(Oc3ccccc3)c2)[C@@H]1/C=C(\Cl)C(F)(F)F (racemic) [Lambda cyhalothrin, lambda-cyhalothrin]
AVERAGE DEAD IN % AFTER 5 DAYS ([1]; Lambda Cyhalothrin alone, PPM AI r7-r10:50 r11-r14:25): 57% | AVERAGE DEAD IN % AFTER 5 DAYS [2, 3]: 15%

CNC(=O)c1cc(Cl)cc(C)c1NC(=O)c1cc(Br)nn1-c1ncccc1Cl [Chlorantraniliprol]
AVERAGE DEAD IN % AFTER 5 DAYS ([2]; Chlorantraniliprol alone, PPM AI r6:200 r7:400 r8:800): 25% and 37%

CNC(=O)c1cc(Cl)cc(C)c1NC(=O)c1cc(Br)nn1-c1ncccc1Cl [Chlorantraniliprole, chlorantraniliprole]
AVERAGE DEAD IN % AFTER 5 DAYS ([1]; Chlorantraniliprole alone, 50 PPM AI): 0% | AVERAGE DEAD IN % AFTER 5 DAYS ([1]; Table 45, Chlorantraniliprole alone, 50 PPM AI): 0% | AVERAGE DEAD IN % AFTER 5 DAYS ([2]; Chlorantraniliprole alone, 200 PPM AI): 25% | AVERAGE DEAD IN % AFTER 5 DAYS ([2]; Chlorantraniliprole alone, PPM AI r6:25 r7:50 r8:100): 0%

CCOC(=O)OC1=C(c2c(C)cc(Cl)cc2C)C(=O)N(C)C12CCN(OC)CC2 [Compound T1.055]
AVERAGE DEAD IN % AFTER 5 DAYS ([1]; T1.055 alone, 50 PPM AI): 10% | AVERAGE DEAD IN % AFTER 5 DAYS ([1]; T1.055 alone, PPM AI r6:100 r7:50 r8:25 r9:12.5): 0% | AVERAGE DEAD IN % AFTER 5 DAYS ([1]; T1.055 alone, PPM AI r6:100 r7:50 r8:25 r9:12.5 r10:6.25): 0% | AVERAGE DEAD IN % AFTER 5 DAYS ([1]; Table 45, T1.055 alone, 50 PPM AI): 0% | AVERAGE DEAD IN % AFTER 5 DAYS ([1]; Table 45, T1.055 alone, 100 PPM AI): 25% | AVERAGE DEAD IN % AFTER 5 DAYS ([1]; Table 45, T1.055 alone, 200 PPM AI): 65% | AVERAGE DEAD IN % AFTER 5 DAYS ([1]; Table 46, T1.055 alone, 50 PPM AI): 25% | AVERAGE DEAD IN % AFTER 5 DAYS ([1]; Table 48, T1.055 alone, 12.5 PPM AI): 0% | AVERAGE DEAD IN % AFTER 5 DAYS ([1]; Table 48, T1.055 alone, 25 PPM AI): 0% | AVERAGE DEAD IN % AFTER 5 DAYS ([1]; Table 48, T1.055 alone, 50 PPM AI): 65% | AVERAGE DEAD IN % AFTER 5 DAYS ([1]; Table 48, T1.055 alone, 100 PPM AI): 65% | AVERAGE DEAD IN % AFTER 5 DAYS ([1]; Table 48, T1.055 alone, 200 PPM AI): 80% | AVERAGE DEAD IN % AFTER 5 DAYS ([2]; T1.055 alone, 100 PPM AI): 0% | AVERAGE DEAD IN % AFTER 5 DAYS ([2]; T1.055 alone, 200 PPM AI): 0% | AVERAGE DEAD IN % AFTER 5 DAYS ([2]; T1.055 alone, PPM AI r6:200 r7:100 r8:50): 0%

CCOC(=O)OC1=C(c2c(C)cc(C)cc2C)C(=O)N(C)C12CCN(OC)CC2 [Compound T1.058]
AVERAGE DEAD IN % AFTER 5 DAYS ([2]; T1.058 alone, 50 PPM AI): 0% | AVERAGE DEAD IN % AFTER 5 DAYS ([2]; T1.058 alone, 100 PPM AI): 55% | AVERAGE DEAD IN % AFTER 5 DAYS ([2]; T1.058 alone, PPM AI r7:50 r8:25 r9:12.5 r10:6.25 r11:3.125 r12-r15:50): 0%

CCOC(=O)OC1=C(c2c(C)cc(Cl)cc2C)C(=O)NC12CCN(OC)CC2 [Compound T1iii.055]
AVERAGE DEAD IN % AFTER 5 DAYS ([1]; T1iii.055 alone, 12.5 PPM AI): 0% | AVERAGE DEAD IN % AFTER 5 DAYS ([1]; T1iii.055 alone, 25 PPM AI): 0% | AVERAGE DEAD IN % AFTER 5 DAYS ([1]; T1iii.055 alone, PPM AI r6:200 r7:100 r8:50 r9:25, 25 ppm active ingredient): 50% | AVERAGE DEAD IN % AFTER 5 DAYS ([1]; T1iii.055 alone, PPM AI r6:200 r7:100 r8:50 r9:25, 200 ppm active ingredient): 80% | AVERAGE DEAD IN % AFTER 5 DAYS ([1]; T1iii.055 alone, PPM AI r7:200 r8:100 r9:50): 0% | AVERAGE DEAD IN % AFTER 5 DAYS ([2]; T1iii.055 alone, 12.5 PPM AI): 0% | AVERAGE DEAD IN % AFTER 5 DAYS ([2]; single active, 1.56 PPM AI, after 5 days): 0% | AVERAGE DEAD IN % AFTER 5 DAYS [2, 3]: 0% | AVERAGE DEAD IN % AFTER 5 DAYS [2, 4]: 0% | AVERAGE DEAD IN % AFTER 5 DAYS [2, 5]: 0%

CNC(=O)c1cc(C#N)cc(C)c1NC(=O)c1cc(Br)nn1-c1ncccc1Cl [Cyantraniliprole, cyantraniliprole]
AVERAGE DEAD IN % AFTER 5 DAYS ([1]; Cyantraniliprole alone, 1.5 PPM AI): 0%

Cc1nn(C)c(/C(OC(=O)C(C)(C)C)=C(\C#N)c2ccc(C(C)(C)C)cc2)c1C [Cyenopyrafen, cyenopyrafen]
AVERAGE DEAD IN % AFTER 5 DAYS ([1]; Cyenopyrafen alone, 200 PPM AI): 0% | AVERAGE DEAD IN % AFTER 5 DAYS ([2]; Cyenopyrafen alone, 1.5 PPM AI): 0% | AVERAGE DEAD IN % AFTER 5 DAYS ([2]; single active, 1.5 PPM AI, after 5 days): 0% | AVERAGE DEAD IN % AFTER 5 DAYS ([2]; single active, 3 PPM AI, after 5 days): 40% | AVERAGE DEAD IN % AFTER 5 DAYS ([2]; single active, 6 PPM AI, after 5 days): 85% | AVERAGE DEAD IN % AFTER 5 DAYS ([2]; single active, 12 PPM AI, after 5 days): 92%

CC1=NNC(=O)N(/N=C/c2cccnc2)C1 [Pymetrozine, pymetrozine]
AVERAGE DEAD IN % AFTER 5 DAYS ([1]; Pymetrozine alone, 0.4 PPM AI): 0% | AVERAGE DEAD IN % AFTER 5 DAYS ([1]; Pymetrozine alone, 0.8 PPM AI): 25% | AVERAGE DEAD IN % AFTER 5 DAYS ([1]; Table 48, Pymetrozine alone, 0.8 PPM AI): 25% | AVERAGE DEAD IN % AFTER 5 DAYS ([2]; Pymetrozine alone, 100 PPM AI): 0% | AVERAGE DEAD IN % AFTER 5 DAYS ([2]; Pymetrozine alone, 200 PPM AI): 0% | AVERAGE DEAD IN % AFTER 5 DAYS [2, 6]: 0% | AVERAGE DEAD IN % AFTER 5 DAYS [2, 7]: 0% | AVERAGE DEAD IN % AFTER 5 DAYS [2, 8]: 0% | AVERAGE DEAD IN % AFTER 5 DAYS [2, 9]: 50%

CC(c1ccc(C(F)(F)F)nc1)S(C)(=O)=NC#N (stereo not drawn) [Sulfoxaflor, sulfoxaflor]
AVERAGE DEAD IN % AFTER 5 DAYS ([1]; Sulfoxaflor alone, 0.2 PPM AI): 20% | AVERAGE DEAD IN % AFTER 5 DAYS ([2]; Sulfoxaflor alone, PPM AI r6:50 r7:100 r8:200 r9:400): 0% | AVERAGE DEAD IN % AFTER 5 DAYS [2, 6]: 0% | AVERAGE DEAD IN % AFTER 5 DAYS [2, 7]: 0% | AVERAGE DEAD IN % AFTER 5 DAYS [2, 8]: 0% | AVERAGE DEAD IN % AFTER 5 DAYS [2, 9]: 35%

CN1COCN(Cc2cnc(Cl)s2)/C1=N\[N+](=O)[O-] [Thiamethoxam, thiamethoxam]
AVERAGE DEAD IN % AFTER 5 DAYS ([1]; Thiamethoxam alone, 0.8 PPM AI): 0% | AVERAGE DEAD IN % AFTER 5 DAYS ([2]; Thiamethoxam alone, PPM AI r6:50 r7:100 r8:200 r9:400 r10:100 r11:200 r12:400): 0% | AVERAGE DEAD IN % AFTER 5 DAYS [2, 10]: 0% | AVERAGE DEAD IN % AFTER 5 DAYS [2, 6]: 0% | AVERAGE DEAD IN % AFTER 5 DAYS [2, 7]: 0% | AVERAGE DEAD IN % AFTER 5 DAYS [2, 8]: 0% | AVERAGE DEAD IN % AFTER 5 DAYS [2, 9]: 37%

abamectin
AVERAGE DEAD IN % AFTER 5 DAYS ([2]; Abamectin alone, PPM AI r6:0.00625 r7:0.0125 r8:0.025 r9:0.05 r10:0.1): 0%

emamectin benzoate
AVERAGE DEAD IN % AFTER 5 DAYS ([1]; Emamectin Benzoate alone, PPM AI r7:12.5 r8:25 r9:50 r10:100 r11:200): 0% | AVERAGE DEAD IN % AFTER 5 DAYS ([1]; Table 46, Emamectin Benzoate alone, 12.5 PPM AI): 0% | AVERAGE DEAD IN % AFTER 5 DAYS ([1]; Table 46, Emamectin Benzoate alone, 25 PPM AI): 0% | AVERAGE DEAD IN % AFTER 5 DAYS ([1]; Table 46, Emamectin Benzoate alone, 50 PPM AI): 0% | AVERAGE DEAD IN % AFTER 5 DAYS ([1]; Table 46, Emamectin Benzoate alone, 100 PPM AI): 0% | AVERAGE DEAD IN % AFTER 5 DAYS ([1]; Table 46, Emamectin Benzoate alone, 200 PPM AI): 0% | AVERAGE DEAD IN % AFTER 5 DAYS ([2]; Emamectin Benzoate alone, 0.05 PPM AI): 0% | AVERAGE DEAD IN % AFTER 5 DAYS ([2]; Emamectin Benzoate alone, PPM AI r7:0.1 r8:0.05 r9:0.025 r10:0.0125 r11:0.00625): 0%

spinetoram
AVERAGE DEAD IN % AFTER 5 DAYS ([1]; Spinetoram alone, 100 PPM AI): 0% | AVERAGE DEAD IN % AFTER 5 DAYS [2, 4]: 0% | AVERAGE DEAD IN % AFTER 5 DAYS [2, 5]: 25% | AVERAGE DEAD IN % AFTER 5 DAYS ([2]; single active, 25 PPM AI, after 5 days): 80% | AVERAGE DEAD IN % AFTER 5 DAYS [2, 10]: 95%
